Experimental data as given in paper PMC4306938, “Araguspongine C Induces Autophagic Death in Breast Cancer Cells through Suppression of c-Met and HER2 Receptor Tyrosine Kinase Signaling” (Marine Drugs, 2015).

Legend:
c-Met [1] = molecular target: T1, c-Met (Homo sapiens, UniProt P08581); test: cell-free Z-LYTE Tyr6 peptide kinase assay, dose-response; format: biochemical
c-Met [2] = molecular target: T1, c-Met; test: cell-free Z-LYTE Tyr6 peptide kinase assay, positive control measured by the authors; format: biochemical

T1 sequence (P08581 25-307): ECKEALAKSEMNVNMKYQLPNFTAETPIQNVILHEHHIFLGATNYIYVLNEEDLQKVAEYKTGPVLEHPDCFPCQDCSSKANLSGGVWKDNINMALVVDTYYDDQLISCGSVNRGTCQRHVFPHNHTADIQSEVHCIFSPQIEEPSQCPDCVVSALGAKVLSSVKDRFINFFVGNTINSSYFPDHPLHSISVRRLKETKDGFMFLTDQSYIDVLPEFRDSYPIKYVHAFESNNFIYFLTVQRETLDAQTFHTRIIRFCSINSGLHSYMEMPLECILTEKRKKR
T1 sequence (P08581 308-1390): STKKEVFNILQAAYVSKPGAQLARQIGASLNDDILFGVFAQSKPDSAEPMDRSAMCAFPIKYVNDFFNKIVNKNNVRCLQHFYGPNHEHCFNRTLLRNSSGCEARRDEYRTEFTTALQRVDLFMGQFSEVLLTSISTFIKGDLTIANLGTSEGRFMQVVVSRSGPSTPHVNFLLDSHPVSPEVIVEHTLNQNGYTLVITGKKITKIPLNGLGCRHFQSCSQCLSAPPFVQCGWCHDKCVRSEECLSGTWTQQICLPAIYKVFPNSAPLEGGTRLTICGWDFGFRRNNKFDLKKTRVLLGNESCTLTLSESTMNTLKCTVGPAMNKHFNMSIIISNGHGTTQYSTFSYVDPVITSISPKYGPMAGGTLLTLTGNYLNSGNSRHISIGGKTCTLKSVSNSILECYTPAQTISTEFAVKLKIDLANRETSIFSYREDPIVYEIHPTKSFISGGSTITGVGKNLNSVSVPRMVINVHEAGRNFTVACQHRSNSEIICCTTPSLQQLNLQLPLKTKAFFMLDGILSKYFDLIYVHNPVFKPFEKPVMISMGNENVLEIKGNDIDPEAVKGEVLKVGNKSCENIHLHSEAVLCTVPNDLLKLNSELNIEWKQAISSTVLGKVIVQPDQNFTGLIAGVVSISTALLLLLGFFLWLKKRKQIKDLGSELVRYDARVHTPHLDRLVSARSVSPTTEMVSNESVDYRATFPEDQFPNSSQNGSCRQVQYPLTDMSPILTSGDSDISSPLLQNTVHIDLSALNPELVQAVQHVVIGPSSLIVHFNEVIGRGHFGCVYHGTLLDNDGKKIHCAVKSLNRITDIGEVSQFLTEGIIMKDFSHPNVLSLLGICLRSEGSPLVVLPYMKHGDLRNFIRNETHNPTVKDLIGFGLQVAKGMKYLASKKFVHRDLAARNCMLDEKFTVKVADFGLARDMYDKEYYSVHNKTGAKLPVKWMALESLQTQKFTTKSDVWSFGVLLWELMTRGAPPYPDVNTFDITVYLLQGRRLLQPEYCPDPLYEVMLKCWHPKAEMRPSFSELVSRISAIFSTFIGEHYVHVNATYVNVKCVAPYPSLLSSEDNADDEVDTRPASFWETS

IC50 (c-Met [1]) | SMILES | IC50 (c-Met [2])
19.9 µM | O[C@]12CCCCCC[C@@H]3CCN4CCC[C@](O)(CCCCCC[C@@H]5CCN(CCC1)[C@H]2O5)[C@@H]4O3 [ARG C, Araguspongine C] | 
 | C/C=C(/C=O)[C@@H](CC=O)CC(=O)OCCc1ccc(O)cc1 [OC, (−)-Oleocanthal] | 5 µM
